The CheMixHub viscosity set

Assay: xn = mol fraction of the nth substance listed

CC(=O)OCCC(C)C + CCCCCC
viscosity [mPa·s], 101 kPa
Settings	298.15 K	308.15 K
x1 = 0.0521	0.303	0.286
x1 = 0.149	0.328	0.313
x1 = 0.2509	0.358	0.345
x1 = 0.3492	0.391	0.38
x1 = 0.4851	0.445	0.435
x1 = 0.5317	0.466	0.456
x1 = 0.5507	0.475	0.464
x1 = 0.6504	0.526	0.514
x1 = 0.7492	0.585	0.57
x1 = 0.8506	0.655	0.635
x1 = 0.9546	0.74	0.711

CCCOCC(C)OCC(C)O (configuration not stated) + CO
298.15 K, 101 kPa
Settings	viscosity [mPa·s]
x1 = 0.0049	0.5615
x1 = 0.0317	0.671
x1 = 0.0663	0.8138
x1 = 0.1021	0.9677
x1 = 0.1531	1.186
x1 = 0.2032	1.412
x1 = 0.2563	1.651
x1 = 0.3125	1.899
x1 = 0.3556	2.09
x1 = 0.4091	2.314
x1 = 0.4685	2.55
x1 = 0.5204	2.746
x1 = 0.5557	2.869
x1 = 0.6337	3.117
x1 = 0.6879	3.273
x1 = 0.7232	3.366
x1 = 0.8407	3.639
x1 = 0.8827	3.724
x1 = 0.937	3.813

CCCCCCCC/C=C\CCCCCCCCO + CC(C)[C@@H]1CC[C@@H](C)C[C@H]1O
100 kPa, x2 = 0.5
Settings	viscosity [mPa·s]
298.13 K	19.79
298.15 K	19.76
303.15 K	14.47
313.13 K	9.11
323.12 K	5.98

CC(=O)O.OCCNCCO + CC(=O)O.NCCO
viscosity [mPa·s], 101.3 kPa
Settings	x2 = 0.132	x2 = 0.2549	x2 = 0.3688	x2 = 0.4761	x2 = 0.5761	x2 = 0.671	x2 = 0.7597	x2 = 0.8444	x2 = 0.9235
293.15 K	2246	2377	2507	2638	2769	2900	3031	3161	3292
298.15 K	1454	1544	1635	1725	1815	1906	1996	2086	2177
303.15 K	965.1	1025	1084	1144	1204	1263	1323	1383	1442
308.15 K	657.7	698.1	738.5	778.9	819.3	859.7	900	940.4	980.8
313.15 K	459.4	487.4	515.3	543.3	571.3	599.2	627.2	655.1	683.1
318.15 K	328.1	348	367.8	387.6	407.4	427.3	447.1	466.9	486.7
323.15 K	239.3	253.7	268	282.3	296.7	311	325.3	339.7	354

CC(C)COCCO + O
298.15 K, 101 kPa
Settings	viscosity [mPa·s]
x1 = 0.0037	0.9
x1 = 0.016	1.2
x1 = 0.0469	2.4
x1 = 0.0611	2.7
x1 = 0.11	3.65
x1 = 0.177	4.27
x1 = 0.263	4.4
x1 = 0.764	3.7
